From the supplement of paper PMC11061612

Experiments:
[1] = tested on: COR-L95 (Small Cell Lung Carcinoma); experiment: combination Emax (second highest fraction inhibited in the dose matrix, 72 h); higher = more inhibition; extreme values may be limits of the assay
Summary of the method: (§1)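 Bliss excess equals the observed combination effect minus the expected value EA + EB − EA·EB, where EA and EB are the effects of each agent alone. Combination Emax is the second-highest inhibition within the matrix. Inhibition was scaled from CellTiter-Glo 2.0 luminescence, with 0 set by vehicle wells and 1 by blank wells, after 72 hours of two-drug dosing of cells plated in 1536-well plates.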

[2] = tested on: SW1088 (Low Grade Glioma); experiment: as above
Summary of the method: as §1

Row | SMILES | combination Emax [1] | combination Emax [2]
1 | CC(=O)Nc1cccc(-n2c(=O)n(C3CC3)c(=O)c3c(Nc4ccc(I)cc4F)n(C)c(=O)c(C)c32)c1 [Trametinib] + Cc1nc(-c2cn3c(n2)-c2ccc(-c4cnn(C(C)(C)C(N)=O)c4)cc2OCC3)n(C(C)C)n1 [Taselisib] (first compound max 1 µM, 7x7, partner max 10 µM) | 0.439 | 0.696
2 | CN(CCO)CC[C@H](CSc1ccccc1)Nc1ccc(S(=O)(=O)NC(=O)c2ccc(N3CCC([C@@H](O)c4ccccc4-c4ccc(Cl)cc4)CC3)cc2)cc1S(=O)(=O)C(F)(F)F [AZD4320] + C=CCn1c(=O)c2cnc(Nc3ccc(N4CCN(C)CC4)cc3)nc2n1-c1cccc(C(C)(C)O)n1 [AZD1775] (first compound max 1 µM, partner max 1 µM) | 1 | 0.391
3 | CC1(C)CCC(CN2CCN(c3ccc(C(=O)NS(=O)(=O)c4ccc(NCC5CCOCC5)c([N+](=O)[O-])c4)c(Oc4cnc5[nH]ccc5c4)c3)CC2)=C(c2ccc(Cl)cc2)C1 [Venetoclax] + Cn1cnc2c(F)c(Nc3ccc(Br)cc3Cl)c(C(=O)NOCCO)cc21 [Selumetinib] (first compound max 1 µM, 7x7, partner max 3 µM) | 0.572 | 0.146
4 | Cc1c2c(nn1C)CSCc1cc(n(C)n1)CSc1cc(c3ccccc3c1)OCCCc1c(C(=O)O)n(C)c3c-2c(Cl)ccc13 [AZD5991] + C=CCn1c(=O)c2cnc(Nc3ccc(N4CCN(C)CC4)cc3)nc2n1-c1cccc(C(C)(C)O)n1 [AZD1775] (first compound max 1 µM, partner max 1 µM) | 0.757 | 0.352
5 | CC1(C)CCC(CN2CCN(c3ccc(C(=O)NS(=O)(=O)c4ccc(NCC5CCOCC5)c([N+](=O)[O-])c4)c(Oc4cnc5[nH]ccc5c4)c3)CC2)=C(c2ccc(Cl)cc2)C1 [Venetoclax] + COc1cc(Nc2ncc3c(n2)-c2ccc(Cl)cc2C(c2c(F)cccc2OC)=NC3)ccc1C(=O)O [Alisertib] (first compound max 1 µM, 7x7, partner max 10 µM) | 0.705 | 0.679
6 | Cc1c2c(nn1C)CSCc1cc(n(C)n1)CSc1cc(c3ccccc3c1)OCCCc1c(C(=O)O)n(C)c3c-2c(Cl)ccc13 [AZD5991] + Cn1cnc2c(F)c(Nc3ccc(Br)cc3Cl)c(C(=O)NOCCO)cc21 [Selumetinib] (first compound max 1 µM, 7x7, partner max 3 µM) | 0.306 | 0.229
7 | Cc1c2c(nn1C)CSCc1cc(n(C)n1)CSc1cc(c3ccccc3c1)OCCCc1c(C(=O)O)n(C)c3c-2c(Cl)ccc13 [AZD5991] + CCN(CCO)CCCOc1ccc2c(Nc3cc(CC(=O)Nc4cccc(F)c4)[nH]n3)ncnc2c1 [AZD2811] (first compound max 1 µM, 7x7, partner max 1 µM) | 0.449 | 0.494
8 | CN(CCO)CC[C@H](CSc1ccccc1)Nc1ccc(S(=O)(=O)NC(=O)c2ccc(N3CCC([C@@H](O)c4ccccc4-c4ccc(Cl)cc4)CC3)cc2)cc1S(=O)(=O)C(F)(F)F [AZD4320] + C1CN(CCC1(C(=O)N[C@@H](CCO)C2=CC=C(C=C2)Cl)N)C3=NC=NC4=C3C=CN4 [Capivasertib] (first compound max 1 µM, 7x7, partner max 3 µM) | 1 | 0.423
9 | CC1(C)CCC(CN2CCN(c3ccc(C(=O)NS(=O)(=O)c4ccc(NCC5CCOCC5)c([N+](=O)[O-])c4)c(Oc4cnc5[nH]ccc5c4)c3)CC2)=C(c2ccc(Cl)cc2)C1 [Venetoclax] + C[C@@H]1COCCN1C2=NC(=NC(=C2)C3(CC3)[S@](=N)(=O)C)C4=C5C=CNC5=NC=C4 [AZD6738] (first compound max 1 µM, 7x7, partner max 10 µM) | 0.838 | 0.684
10 | CN(CCO)CC[C@H](CSc1ccccc1)Nc1ccc(S(=O)(=O)NC(=O)c2ccc(N3CCC([C@@H](O)c4ccccc4-c4ccc(Cl)cc4)CC3)cc2)cc1S(=O)(=O)C(F)(F)F [AZD4320] + CCN(CCO)CCCOc1ccc2c(Nc3cc(CC(=O)Nc4cccc(F)c4)[nH]n3)ncnc2c1 [AZD2811] (first compound max 1 µM, 7x7, partner max 1 µM) | 1 | 0.306
11 | Cc1c2c(nn1C)CSCc1cc(n(C)n1)CSc1cc(c3ccccc3c1)OCCCc1c(C(=O)O)n(C)c3c-2c(Cl)ccc13 [AZD5991] + Cc1cc2ncnn2cc1Nc1ncc2c(n1)n(C1CCOCC1)c(=O)n2C [AZD7648] (first compound max 1 µM, 7x7, partner max 10 µM) | 0.315 | 0.423
12 | CN(CCO)CC[C@H](CSc1ccccc1)Nc1ccc(S(=O)(=O)NC(=O)c2ccc(N3CCC([C@@H](O)c4ccccc4-c4ccc(Cl)cc4)CC3)cc2)cc1S(=O)(=O)C(F)(F)F [AZD4320] + Cn1cnc2c(F)c(Nc3ccc(Br)cc3Cl)c(C(=O)NOCCO)cc21 [Selumetinib] (first compound max 1 µM, 7x7, partner max 3 µM) | 1 | 0.289
13 | Cc1c2c(nn1C)CSCc1cc(n(C)n1)CSc1cc(c3ccccc3c1)OCCCc1c(C(=O)O)n(C)c3c-2c(Cl)ccc13 [AZD5991] + CC1(C)CCC(CN2CCN(c3ccc(C(=O)NS(=O)(=O)c4ccc(NCC5CCOCC5)c([N+](=O)[O-])c4)c(Oc4cnc5[nH]ccc5c4)c3)CC2)=C(c2ccc(Cl)cc2)C1 [Venetoclax] (first compound max 1 µM, 7x7, partner max 1 µM) | 0.914 | 0.248
14 | CN(CCO)CC[C@H](CSc1ccccc1)Nc1ccc(S(=O)(=O)NC(=O)c2ccc(N3CCC([C@@H](O)c4ccccc4-c4ccc(Cl)cc4)CC3)cc2)cc1S(=O)(=O)C(F)(F)F [AZD4320] + C[C@@H](Nc1cc(F)cc(F)c1)c1cc(C(=O)N(C)C)cc2c(=O)cc(N3CCOCC3)oc12 [AZD8186] (first compound max 1 µM, 7x7, partner max 3 µM) | 1 | 0.515
15 | CC1(C)CCC(CN2CCN(c3ccc(C(=O)NS(=O)(=O)c4ccc(NCC5CCOCC5)c([N+](=O)[O-])c4)c(Oc4cnc5[nH]ccc5c4)c3)CC2)=C(c2ccc(Cl)cc2)C1 [Venetoclax] + Cc1cc2ncnn2cc1Nc1ncc2c(n1)n(C1CCOCC1)c(=O)n2C [AZD7648] (first compound max 1 µM, 7x7, partner max 10 µM) | 0.607 | 0.341
16 | CN(CCO)CC[C@H](CSc1ccccc1)Nc1ccc(S(=O)(=O)NC(=O)c2ccc(N3CCC([C@@H](O)c4ccccc4-c4ccc(Cl)cc4)CC3)cc2)cc1S(=O)(=O)C(F)(F)F [AZD4320] + Cc1cc2ncnn2cc1Nc1ncc2c(n1)n(C1CCOCC1)c(=O)n2C [AZD7648] (first compound max 1 µM, 7x7, partner max 10 µM) | 1 | 0.332
17 | Cc1c2c(nn1C)CSCc1cc(n(C)n1)CSc1cc(c3ccccc3c1)OCCCc1c(C(=O)O)n(C)c3c-2c(Cl)ccc13 [AZD5991] + C[C@@H](Nc1cc(F)cc(F)c1)c1cc(C(=O)N(C)C)cc2c(=O)cc(N3CCOCC3)oc12 [AZD8186] (first compound max 1 µM, 7x7, partner max 3 µM) | 0.346 | 0.533
